# Earlier results in patent publication US20070141027A1, “Non-lethal conditioning methods for conditioning a recipient for bone marrow transplantation” (UNIVERSITY OF LOUISVILLE RESEARCH FOUNDATION INC., priority 2003, published 2007).
# Test system: mice
# Conditions: reduced from 700 cGy TBI alone; CyP 200 mg/kg i.p. 2 days after BMT; ALG or anti-CD8 on day -3 added to it
smiles,measurement,value
"O=P1(N(CCCl)CCCl)NCCCO1 (stereo not shown) [cyclophosphamide (CyP), cyclophosphamide]",TBI dose for allogeneic marrow engraftment,500 cGy
